Counter-ions that a name gives are not always drawn.
biological target: hTRPA1 (Homo sapiens, UniProt O75762); assay: Dose response calcium flux (FLIPR) assay, ChanTest hTRPA1-CHO stably transfected cell line, cinnamaldehyde agonist; type: cell-based; conditions: CHO-K1 Tet-On hTRPA1 cells, 100 uM cinnamaldehyde agonist, 30 min preincubation
Description: Dose Response Assay:ChanTest hTRPA1-CHO Stably Transfected Cell Line
CHO-K1 Tet-On_HOMSA_TRPA1_Clone_20
Growth Media for CHO-K1 Tet-On_HOMSA_TRPA1_Clone_20 • Ham's F-12 with 10% tetracycline-free FBS • 1× penicillin-streptomycin • 1× glutamax • 0.01 mg/ml Blasticidin • 0.40 mg/ml Zeocin • The cell line doubling rate was ˜15 h. […] Experiments were run at 24 h post induction.
Plating Conditions CHOK1/TRPA1 Cells: • Harvested cells with 0.025% trypsin/EDTA. • Resuspended cells in growth media without selection antibiotics. • Measured cell density and diluted to 2.4×10^5 cells/ml in media containing 1 ug/ml Doxycycline Plate 25 ul/well into 384 well black/clear tissue culture-treated plates. • Incubated overnight at 37° C.
Replacement Buffer: Hank's Balanced Salt Solution, 20 mM HEPES along with 0.005% BSA and 2× Probenecid
Dye Loading Buffer: Cal-3 NW Calcium dye was prepared by dissolving the contents of one vial with […] Hank's Balanced Salt Solution containing 20 mM HEPES.
AP-18, stock 10 mM, prepare 3.5× compound dilution in a Compound Buffer (HBSS/20 mM HEPES/0.005% BSA)—final concentration 10 uM.
Preparation of Cinnamaldehyde (Agonist Addition): • FW=132.16 • Specific gravity=1.046 gm/cc • 1.32 gm/1.046 gm/cc=1.26 ml of stock • Add 1.74 ml DMSO=3.3 M stock • Working solution 4.5× (final 100 uM in Compound Buffer: HBSS/20 mM HEPES/0.005% BSA)
Compounds dilutions were prepared from 5 or 10 mM stock (100% DMSO): • Adjustments of volumes and concentrations were made at time of titration to reflect desired final assay concentrations. • Compounds were tested at either 20 μM three folds dilution 11 steps out or 30 μM two folds dilution 11 steps out. • 3 μl of diluted compound were transferred into Weidmann 384-well plate in duplicates side-by-side. • Compound plates were resuspended with 100 ul of HBSS/20 mM HEPES/0.005% BSA buffer (Compound Buffer): • column 1A-H: buffer/DMSO (bk) • column 2A-H: AP-18 (control antagonist for CHOK1 TRPA1 cells) • column 1I-P: ATP (control for CHOK1 teton cells) • column 2I-P: 2APB (control antagonist for CHOK1/TRPM8 cells).
Growth media was removed from the cell plates (20 ul) and 20 μl of the Replacement Buffer was added followed by addition of 25 μl of diluted dye. All three steps were performed using a Plate Washer BioTek 407. The plates were then incubated for 30′ at RT.
After incubation, both the cell and compound plates were brought to the FLIPR and 20 μl of the diluted compounds/antagonist/bk were transferred to the cell plates by the FLIPR. Plates were then incubated for 30′ at room temperature. After 30′ incubation, plates were returned to the FLIPR and 20 μl of 4.5× Cinnamaldehyde was added to the cell plates. During the compound addition as well as agonist addition, fluorescence readings were taken simultaneously from all 384 wells of the cell plate every 1.5 seconds. Five readings were taken to establish a stable baseline, then 20 μl of sample was rapidly (30 ul/sec) and simultaneously added to each well of the cell plate. The fluorescence was continuously monitored before, during and after sample/agonist addition for a total elapsed time of 100 seconds (compound addition) and 120 seconds (agonist addition). Responses (increase in peak fluorescence) in each well following agonist addition was determined. The initial fluorescence reading from each well, prior to ligand stimulation, was used a zero baseline value for the data from that well.

Sequence of hTRPA1 (O75762 whole entry): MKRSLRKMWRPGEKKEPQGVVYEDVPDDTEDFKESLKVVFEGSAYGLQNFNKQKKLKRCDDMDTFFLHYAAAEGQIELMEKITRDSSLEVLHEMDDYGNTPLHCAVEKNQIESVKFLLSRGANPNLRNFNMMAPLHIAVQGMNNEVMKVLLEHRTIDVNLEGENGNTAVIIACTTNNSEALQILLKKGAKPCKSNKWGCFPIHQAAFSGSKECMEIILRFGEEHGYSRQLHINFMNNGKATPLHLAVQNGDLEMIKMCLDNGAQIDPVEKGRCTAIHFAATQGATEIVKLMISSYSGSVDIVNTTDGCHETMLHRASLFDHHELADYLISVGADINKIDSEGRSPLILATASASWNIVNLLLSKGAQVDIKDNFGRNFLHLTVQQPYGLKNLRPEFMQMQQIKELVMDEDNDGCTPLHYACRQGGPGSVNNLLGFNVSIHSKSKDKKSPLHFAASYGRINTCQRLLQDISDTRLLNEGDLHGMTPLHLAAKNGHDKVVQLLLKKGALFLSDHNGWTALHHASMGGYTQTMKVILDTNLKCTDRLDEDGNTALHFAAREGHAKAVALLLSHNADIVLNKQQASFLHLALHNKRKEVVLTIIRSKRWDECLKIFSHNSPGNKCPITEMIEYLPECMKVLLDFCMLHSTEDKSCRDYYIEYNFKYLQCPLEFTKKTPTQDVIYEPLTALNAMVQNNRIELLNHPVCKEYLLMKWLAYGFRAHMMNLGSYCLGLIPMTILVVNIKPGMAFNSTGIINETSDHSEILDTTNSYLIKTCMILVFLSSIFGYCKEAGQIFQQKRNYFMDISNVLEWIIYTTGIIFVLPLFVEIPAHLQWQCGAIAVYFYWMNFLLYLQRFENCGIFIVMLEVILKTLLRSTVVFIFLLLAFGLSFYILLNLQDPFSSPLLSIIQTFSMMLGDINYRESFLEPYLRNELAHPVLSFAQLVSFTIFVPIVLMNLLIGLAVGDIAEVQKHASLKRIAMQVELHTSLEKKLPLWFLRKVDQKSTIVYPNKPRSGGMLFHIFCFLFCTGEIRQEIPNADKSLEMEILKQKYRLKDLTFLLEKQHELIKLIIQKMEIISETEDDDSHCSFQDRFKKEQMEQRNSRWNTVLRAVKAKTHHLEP

`O=C(Nc1ccc(Cl)c(F)c1)O[C@@H](CN1CCO[C@H](c2ccc(Cl)c(F)c2)C1)C(F)(F)F` [Example 4, (4-Chloro-3-fluorophenyl)-carbamic acid (S)-1-[(R)-2-(4-chloro-3-fluorophenyl)-morpholin-4-ylmethyl]-2,2,2-trifluoroethyl ester hydrochloride] and `O=C(Nc1ccc(Cl)c(F)c1)O[C@@H](CN1CCO[C@H](c2ccc(F)c(Cl)c2)C1)C(F)(F)F` [Example 5, (4-Chloro-3-fluorophenyl)-carbamic acid (S)-1-[(R)-2-(3-chloro-4-fluorophenyl)-morpholin-4-ylmethyl]-2,2,2-trifluoroethyl ester hydrochloride] are within 1.5-fold of each other in IC50: 42.4 nM for the first, 30.7 nM for the second.

First: O=C(Nc1ccc(Cl)cc1)O[C@@H](CN1CCS(=O)(=O)[C@@H](c2cccc(C(F)(F)F)c2)C1)C(F)(F)F (single isomer, unassigned) [Example 19]
Second: O=C(Nc1ccc(Cl)cc1)O[C@@H](CN1CCS(=O)(=O)[C@H](c2cccc(C(F)(F)F)c2)C1)C(F)(F)F [Example 18, (4-Chlorophenyl)-carbamic acid (S)-1-[(R)-1,1-dioxo-2-(3-trifluoromethylphenyl)-1λ^6-thiomorpholin-4-ylmethyl]-2,2,2-trifluoroethyl ester]
The IC50 of the first is 4.5-fold higher: 191 nM for the first, 42.5 nM for the second.

First: COc1ccc(C[C@@H]2CN(C[C@H](OC(=O)Nc3ccc(Cl)cc3)C(F)(F)F)CCO2)cn1 [Example 50, (4-Chloro-phenyl)-carbamic acid (S)-2,2,2-trifluoro-1-[(R)-2-(6-methoxy-pyridin-3-ylmethyl)-morpholin-4-ylmethyl]ethyl ester]
Second: O=C(Nc1ccc(Cl)cc1)O[C@@H](CN1CCO[C@@H](Cc2ccccc2)C1)C(F)(F)F (single isomer, unassigned) [Example 10, hydrochloride]
The IC50 of the first is 15-fold lower: 244 nM for the first, 3580 nM for the second. The first is the more potent here.

Going from `O=C(Nc1ccc(Cl)cc1)O[C@@H](CN1CCOC(c2ccc(F)c(C(F)(F)F)c2)C1)C(F)(F)F` (stereo partly drawn) [Example 2, (4-Chlorophenyl)-carbamic acid (S)-2,2,2-trifluoro-1-[2-(4-fluoro-3-trifluoromethylphenyl)-morpholin-4-ylmethyl]-ethyl ester hydrochloride] to `O=C(Nc1ccc(Cl)cc1)O[C@@H](CN1CCO[C@H](c2ccc(F)c(C(F)(F)F)c2)C1)C(F)(F)F` [Example 1, (4-Chlorophenyl)-carbamic acid (S)-2,2,2-trifluoro-1-[(R)-2-(4-fluoro-3-trifluoromethylphenyl)-morpholin-4-ylmethyl]-ethyl ester hydrochloride], the IC50 falls from 8.5 nM to 4.91 nM (1.7-fold). The second is the more potent here.

First: O=C(Nc1ccc(Cl)c(F)c1)O[C@@H](CN1CCO[C@H](c2ccc(C(F)(F)F)nc2)C1)C(F)(F)F [Example 22, (4-Chloro-3-fluorophenyl)-carbamic acid (S)-2,2,2-trifluoro-1-[(R)-2-(6-trifluoromethyl-pyridin-3-yl)-morpholin-4-ylmethyl]-ethyl ester]
Second: O=C(Nc1ccc(Cl)c(F)c1)O[C@@H](CN1CCO[C@H](c2ccc(F)c(C(F)(F)F)c2)C1)C(F)(F)F [Example 3, (4-Chloro-3-fluorophenyl)-carbamic acid (S)-2,2,2-trifluoro-1-[(R)-2-(4-fluoro-3-trifluoromethylphenyl)-morpholin-4-ylmethyl]-ethyl ester hydrochloride]
The IC50 of the first is 4.5-fold higher: 64.3 nM for the first, 14.3 nM for the second. The second is the more potent here.

Compared with `COc1cccc([C@@H]2CN(C[C@H](OC(=O)Nc3ccc(Cl)cc3)C(F)(F)F)CCO2)c1` [Example 14, (4-Chlorophenyl)-carbamic acid (S)-2,2,2-trifluoro-1-[(R)-2-(3-methoxyphenyl)-morpholin-4-ylmethyl]-ethyl ester], `COc1cccc([C@H]2CN(C[C@H](OC(=O)Nc3ccc(Cl)cc3)C(F)(F)F)CCO2)c1` (single isomer, unassigned) [Example 15] is 22-fold higher in IC50: 36.1 nM for the first, 803 nM for the second. The first is the more potent here.

Compared with `CC(=O)N1CCN(C[C@H](OC(=O)Nc2ccc(Cl)cc2)C(F)(F)F)CC1c1ccccc1` (stereo partly drawn) [Example 28, (4-Chlorophenyl)-carbamic acid (S)-1-(4-acetyl-3-phenylpiperazin-1-ylmethyl)-2,2,2-trifluoroethyl ester hydrochloride], `CN1CCN(C[C@H](OC(=O)Nc2ccc(Cl)cc2)C(F)(F)F)CC1c1ccccc1` (stereo partly drawn) [Example 27, (4-Chlorophenyl)-carbamic acid (S)-2,2,2-trifluoro-1-(4-methyl-3-phenylpiperazin-1-ylmethyl)-ethyl ester hydrochloride] is 1.7-fold lower in IC50: 4530 nM for the first, 2620 nM for the second.

Compared with `O=C(Nc1ccc(Cl)cc1)O[C@@H](CN1CCO[C@H](Cc2cccs2)C1)C(F)(F)F` [Example 49, (4-Chlorophenyl)-carbamic acid (S)-2,2,2-trifluoro-1-((R)-2-thiophen-2-ylmethyl-morpholin-4-ylmethyl)-ethyl ester hydrochloride], `O=C(Nc1ccc(Cl)cc1)O[C@@H](CN1CCOC(c2cccc(Cl)c2)C1)C(F)(F)F` (stereo partly drawn) [Example 43, (4-Chlorophenyl)-carbamic acid (S)-2,2,2-trifluoro-1-[2-(3-chlorophenyl)-morpholin-4-ylmethyl]-ethyl ester hydrochloride] is 6.5-fold lower in IC50: 115 nM for the first, 17.8 nM for the second.

First: Cc1ccc(NC(=O)O[C@@H](CN2CCOC(c3ccc(C(F)(F)F)cc3)C2)C(F)(F)F)cc1Cl (stereo partly drawn) [Example 33, (3-Chloro-4-methylphenyl)-carbamic acid (S)-2,2,2-trifluoro-1-[2-(4-trifluoromethylphenyl)-morpholin-4-ylmethyl]-ethyl ester hydrochloride]
Second: O=C(Nc1ccc(Cl)cc1)O[C@@H](CN1CCO[C@H](c2cccc(C(F)(F)F)c2)C1)C(F)(F)F [Example 11, (4-Chlorophenyl)-carbamic acid (S)-2,2,2-trifluoro-1-[(R)-2-(3-trifluoromethylphenyl)-morpholin-4-ylmethyl]-ethyl ester hydrochloride]
The IC50 of the first is 290-fold higher: 1630 nM for the first, 5.58 nM for the second.

First: O=C(C[C@@H](CN1CCO[C@@H](c2cccc(C(F)(F)F)c2)C1)C(F)(F)F)Nc1ccc(Cl)c(F)c1 [Example 40, (S)—N-(4-chloro-3-fluorophenyl)-4,4,4-trifluoro-3-[(S)-2-(3-trifluoromethylphenyl)-morpholin-4-ylmethyl]-butyramide]
Second: O=C(Nc1ccc(Cl)c(F)c1)O[C@@H](CN1CCO[C@H](c2cccc(Cl)c2)C1)C(F)(F)F [Example 6, (4-Chloro-3-fluorophenyl)-carbamic acid (S)-1-[(R)-2-(3-chlorophenyl)-morpholin-4-ylmethyl]-2,2,2-trifluoroethyl ester hydrochloride]
The IC50 of the first is 61-fold higher: 3060 nM for the first, 50.5 nM for the second.

Going from `COc1cccc([C@@H]2CN(C[C@H](OC(=O)Nc3ccc(Cl)cc3)C(F)(F)F)CCS2(=O)=O)c1` [Example 16, (4-Chlorophenyl)-carbamic acid (S)-2,2,2-trifluoro-1-[(R)-2-(3-methoxyphenyl)-1,1-dioxo-1λ^6-thiomorpholin-4-ylmethyl]ethyl ester] to `O=C(Nc1ccc(Cl)c(F)c1)O[C@@H](CN1CCS(=O)(=O)[C@@H](c2cccc(C(F)(F)F)c2)C1)C(F)(F)F` (single isomer, unassigned) [Example 21], the IC50 rises from 152 nM to 1100 nM (7.2-fold). The first is the more potent here.

First: O=C(Nc1ccc(Cl)c(F)c1)O[C@@H](CN1CCO[C@H](c2cccc(Cl)c2)C1)C(F)(F)F [Example 7, (4-Chloro-3-fluorophenyl)-carbamic acid (S)-1-[(R)-2-(3-chlorophenyl)-morpholin-4-ylmethyl]-2,2,2-trifluoroethyl ester hydrochloride]
Second: O=C(Nc1ccc(Cl)c(F)c1)O[C@@H](CN1CCO[C@@H](c2cccc(Cl)c2)C1)C(F)(F)F [Example 8, (4-Chloro-3-fluorophenyl)-carbamic acid (S)-1-[(S)-2-(3-chlorophenyl)-morpholin-4-ylmethyl]-2,2,2-trifluoroethyl ester hydrochloride]
The IC50 of the first is 13-fold lower: 47 nM for the first, 597 nM for the second. The first is the more potent here.
